The text below walks through data of US10947188B2, “Small molecule ferroptosis inducers” (THE TRUSTEES OF COLUMBIA UNIVERSITY IN THE CITY OF NEW YORK, priority 2016, dated 2021).

The test system of one assay is HT-1080 or BJeLR cells. Kind of assay: Analysis of ROS generation (H2-DCFDA flow cytometry). The class given is cell-based. As to the method:
Grew 200,000 HT-1080 or BJeLR cells in six-well plates at 37° C. for 16 h. Cells were treated with test compounds, trypsinized, pelleted, and washed once with PBS. For lipophilic or aqueous ROS detection, cells were re-suspended in Hanks' Balanced Salt Solution (HBSS; Life Technologies) containing test compounds as well as C11-BODIPY(581/591) (2 μM) or H2-DCFDA (25 μM), respectively (Life Technologies), and incubated for 10 min at 37° C. Cells were then pelleted, re-suspended in 500 μL HBSS, strained through a 40-μm cell strainer (BD Falcon), and analyzed using a BD Accuri C6 flow cytometer (BD Biosciences). Both dyes were measured in the FL1 channel. Experiments were done in biological triplicates.
(In general: Flow cytometry measures light scatter and fluorescence of single cells or particles in a stream.)

The subject of assay [1] is HT-1080 cells. Kind of assay: Cell viability assay (Alamar Blue), lethal compounds with or without modulators. The class given is cell-based. Particulars: for effect of ferroptosis inhibitors (α-tocopherol, deferoxamine) on lethality: cotreatment. The method, then:
1,000 cells per 36 μl were seeded in each well in 384-well plates. Lethal compounds were dissolved, and a twofold, 12-point dilution series was prepared in DMSO. Compound solutions were further diluted with media at 1:25, and 4 μl per well of the diluted solutions was added to cell cultures immediately after cells were seeded. […] When other cell-death-modulating compounds (100 nM sodium selenite, 1 μM cerivastatin, 100 μg/mL mevalonic acid) were used in cotreatments, they were supplemented to cell culture for 24 h before lethal compounds were added to cell culture, after which cells were further incubated for 24 h at 37° C. under 5% CO2. On the day of the viability measurement, we added 10 μl per well of 50% Alamar Blue diluted in media (Life Technologies) and further incubated the cells at 37° C. for 6 h. Fluorescence intensity (excitation/emission: 530/590) was measured with a Victor 3 plate reader (PerkinElmer), and the normalized viability was calculated as VL=(IL−I0)/(IV−I0), where VL, I0, IV, and IL are the normalized viability and the raw fluorescence intensities from the wells containing media, cells treated with a vehicle (negative control), and cells with the lethal compound (L), respectively. When the effect of a chemical modulator (M) on L was calculated, we instead used the equation VL|M=(IM,L−I0)/(IM,V−I0), where VL|M, IM,L and IM,V are the normalized viability, and fluorescence intensity from cells treated with […], respectively. The viability was typically measured in biological triplicate unless otherwise specified. A representative dose-response curve, the mean and standard error of normalized viability from one replicate were plotted. […]
For orientation: Alamar Blue is a resazurin reagent that responds to reducing activity.

Assay [2] has as its system BJeLR, DRD, BJeHLT, and BJeH. Kind of assay: Viability of four engineered BJ cell lines (HRAS G12V selectivity). The class given is cell-based, human. Particulars: 48 h.
Assay [3] relates to HT-1080 cells. Nature of the assay: Flow cytometry of intracellular Ca(II) levels (Fluo-4). The class given is cell-based. The conditions noted are these: 2 μM FIN56; over the course of 9 h. An excerpt:
The third compound set examined was suppressors of both ferroptosis and necrosis. These were predicted to target three proteins: alpha-1 (α1) adrenergic receptors 1B and 1D and calmodulin 3. Activation of α1 activates phospholipase C and increases Ca(II). Calmoduline 3 is a calcium-binding protein. Since all three proteins are relevant to calcium signaling, we hypothesized that calcium mediates FIN56-induced ferroptosis.

The next assay deals with GPX4 transcripts. Kind of assay: Reverse-transcription quantitative PCR of GPX4 transcripts. The class given is cell-based. Particulars: 5 μM FIN56. As to the method:
Trypsinized 0.2 to 1 million cells grown in six-well dishes, pelleted them, resuspended them in Buffer RLT (Qiagen), and homogenized them with QlAshredder (Qiagen). RNA was further extracted using the RNeasy Mini Kit (Qiagen). We converted 2 μg of extracted RNA from each sample into cDNA using TaqMan reverse-transcription reagents (Life Technologies). qPCR primers were designed to detect all splicing variants using Primer Express 2.0 (Applied Biosystems). The designed primers were confirmed to amplify only the designated gene transcripts using in silico PCR (see, e.g., http://genome.ucsc.edu/cgi-bin/hgPcr). For qPCR reactions, primers, cDNA, and Power SYBR Green PCR Master Mix (Applied Biosystems) were mixed, and quantitation was performed using a StepOnePlus real-time PCR system (Applied Biosystems). Experiments were done in biological triplicates.

The subject of the next assay is GPX4. Kind of assay: Western blotting of GPX4 protein abundance. The class given is cell-based, human. As to the method: Seeded 300,000 cells (HT-1080 or BJeLR) per well in six-well plates. For cotreatment, ferroptosis inducers (10 μM erastin for 11 h, 0.5 μM (1S, 3R)-RSL3 for 2 h, or 5 μM FIN56) and 100 μM α-tocopherol were added to cell culture at the same time, and cells were then incubated for 10 h (FIG. 2E). When other death-modulating compounds (100 nM sodium selenite, 1 μM cerivastatin, 100 μg/mL mevalonic acid, 30 μM C75, or 2 μM cerulenin) were used in cotreatments, cells were pre-incubated with the modulators for 24 h before being treated with ferroptosis inducers for 6 h. Cell lysis, SDS-PAGE and protein transfer to PVDF membrane were performed as previously described (Dixon et al. 2012). We used the following antibodies: anti-human α-tubulin (Santa Cruz Biotechnology, sc-32293, 1:10,000 dilution), anti-human GPX4 (Abcam, ab41787, 1:2,000 dilution), anti-human GPX1 (R&D Systems, AF3798, 1:1,000 dilution), and anti-human SQS (Abcam, ab109723 for full-length, ab195046 for truncated, both at 1:1,000 dilution). Secondary antibodies were from LI-COR (1:3,000 dilution). The PVDF membranes labeled with primary and secondary antibodies were scanned using an Odyssey Imaging System (LI-COR). Experiments were performed in biological triplicates, and the mean±s.e. of intensity was plotted.
A general note: In western blotting, separated proteins are transferred to a membrane and probed.

Each structure is given as a SMILES string.

Consider `N/C(=N\OC(=O)C12CC3CC(CC(C3)C1)C2)c1ccccc1` [CIL41], for which the “ROS accumulation detected using H2-DCFDA” value in the assay with HT-1080 or BJeLR cells was “induced ROS accumulation”. For the same compound, in the assay with HT-1080 cells [1] (HT-1080 cells), the “effect of ferroptosis inhibitors (α-tocopherol, deferoxamine) on lethality” value (shortened to “effect of ferroptosis inhibitors”) is reported as “strongly suppressed by ferroptosis inhibitors”. Also, the “oncogenic RAS selectivity in the BJ engineered cell line series” value (shortened to “oncogenic RAS selectivity”) in assay [2] is on record as “did not exhibit oncogenic RAS selectivity”.

`O=S(=O)(c1ccc2c(c1)C(=NO)c1cc(S(=O)(=O)N3CCCCC3)ccc1-2)N1CCCCC1` [CIL56, 2,7-bis(piperidin-1-ylsulfonyl)-9H-fluoren-9-one oxime]: the “effect of ferroptosis inhibitors” value in the assay on HT-1080 cells [1] (HT-1080 cells) is “suppressed the lethality of low concentrations”. The “suppression of lethality by antioxidants and iron chelators” value in the assay on HT-1080 cells [1] (ferroptosis-sensitive HT-1080 cells) is reported as “up to 10 fold”. Moreover, the “oncogenic RAS selectivity” value in assay [2] was “retained some degree of selectivity toward oncogenic-RAS-expressing cells”.

Regarding `N/C(Cc1ccc(Cl)cc1)=N\OC(=O)c1cccc2ccccc12` [CIL70], the “ROS accumulation detected using H2-DCFDA” value with HT-1080 or BJeLR cells is listed as “induced ROS accumulation”. The “effect of ferroptosis inhibitors” value in the assay on HT-1080 cells [1] (HT-1080 cells) is listed as “strongly suppressed by ferroptosis inhibitors”. The “oncogenic RAS selectivity” value in assay [2] is “did not exhibit oncogenic RAS selectivity”.

For the compound `O=S(=O)(NC1CCCCC1)c1ccc2c(c1)C(=NO)c1cc(S(=O)(=O)NC3CCCCC3)ccc1-2` [FIN56, N2,N7-dicyclohexyl-9-(hydroxyimino)-9H-fluorene-2,7-disulfonamide], the “kinetics of ROS accumulation compared to (1S, 3R)-RSL3” value in the assay with HT-1080 or BJeLR cells (BJeLR, 5 μM FIN56 vs 0.5 μM (1S, 3R)-RSL3, 25 μM H2-DCFDA) was “slower to induce the accumulation of ROS”. For the same compound, the “effect of ferroptosis inhibitors” value in the assay with HT-1080 cells [1] (HT-1080 cells) was “fully suppressed”. For the same compound, the “suppression of lethality by mevalonate-pathway modulators (FPP, YM-53601, idebenone) and α-tocopherol” value in the assay on HT-1080 cells [1] (HT-1080 cells, modulatory profiling scheme) was “potently suppressed by all the compounds”. In assay [2], the “oncogenic RAS selectivity” value is listed as “greater oncogenic RAS selectivity”. Besides, in assay [2] (BJ cell line series), the “potency compared to CIL56” value was “greater potency”. Further, the “intracellular Ca(II) levels (Fluo-4)” value with HT-1080 cells [3] was “increased intracellular Ca(II) levels”. Also, the GPX4 transcript level entry with GPX4 transcripts was “increased, rather than decreased”. Further, the “abundance of GPX4 protein” value in the assay with GPX4 (BJeLR, cotreatment with 100 μM α-tocopherol, 10 h, FIN56 5 μM) is recorded as “substantially decreased”.

Consider `C[C@@H]1C[C@@H]([C@H](O)CC2CC(=O)NC(=O)C2)C(=O)[C@@H](C)C1` [cycloheximide, Cycloheximide, reference compound], for which the “amount of GPX4 protein compared to α-tubulin after translation inhibition” value in the assay with GPX4 is reported as “did not show substantially decreased amounts of GPX4 protein”.
